Source: patent publication US20050165057A1, “Novel piperidine derivative” (priority 2002, published 2005)

Columns and labels:
[1] = tested on: ACAT; test: Assay of ACAT inhibitory activity using Caco-2 cells; format: cell-based, human; details: concentration of compound: 500 nM
Protocol: 1. Assay of ACAT Inhibitory Activity Using Caco-2 Cells Derived from Human Colon Adenocarcinoma:
The measurement of ACAT inhibitory activity using Caco-2 cells was carried out by a modified method of that disclosed in the literature (J. Lipid. Research, 28, 1057-1066, 1987, Jpn. J. Pharmacol., 68, 191-199, 1995), using radioactive [1-^3H]oleic acid as a substrate, and the enzymatic activity was calculated from the radioactivity of the resultant labeled cholesterolyl oleate.

[2] = biological target: T1, ACAT (Rattus norvegicus, UniProt O70536); test: Assay of ACAT inhibitory activity in a macrophage derived from rat peritoneal cavity; format: cell-based; details: concentration of compound: 500 nM
T1 construct: The rat peritoneal-derived macrophage was prepared according to the method disclosed in the literature; endogenous in cells; host or cells: rat peritoneal macrophages (primary cells)
T1 sequence (O70536 1-545): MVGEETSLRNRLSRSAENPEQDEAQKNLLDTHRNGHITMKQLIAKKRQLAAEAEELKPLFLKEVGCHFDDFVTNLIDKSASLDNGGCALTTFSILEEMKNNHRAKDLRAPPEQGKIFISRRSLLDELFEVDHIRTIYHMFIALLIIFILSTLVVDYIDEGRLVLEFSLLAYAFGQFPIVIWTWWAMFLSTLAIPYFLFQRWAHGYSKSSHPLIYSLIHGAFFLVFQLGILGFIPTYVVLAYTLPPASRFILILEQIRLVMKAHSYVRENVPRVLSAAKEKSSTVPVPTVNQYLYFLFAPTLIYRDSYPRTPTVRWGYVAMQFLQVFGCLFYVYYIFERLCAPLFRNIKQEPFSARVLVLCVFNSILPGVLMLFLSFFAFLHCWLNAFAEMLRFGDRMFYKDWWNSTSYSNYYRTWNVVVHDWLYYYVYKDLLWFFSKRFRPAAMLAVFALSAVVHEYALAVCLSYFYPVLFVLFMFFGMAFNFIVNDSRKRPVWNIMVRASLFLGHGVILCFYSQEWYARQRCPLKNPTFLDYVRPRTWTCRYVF
Protocol: 2. Assay of ACAT Inhibitory Activity in a Macrophage Derived from Rat Peritoneal Cavity:
The rat peritoneal-derived macrophage was prepared according to the method disclosed in the literature: Biochimica et Biophysica Acta, 1126, 73-80, 1992. The ACAT activity was determined by a modified method of the method disclosed in the above literature: Biochimica et Biophysica Acta, 1126, 73-80, 1992, using radioactive [9, 10-^3H]oleic acid and exogenous cholesterol contained in the liposome which was re-constituted according to the method disclosed in the literature: Biochimica et Biophysica Acta, 1213, 127-134, 1994, and calculated from the radioactivity of the labeled cholesterolyl oleate.

CC(C)c1cc(N)cc(C(C)C)c1NC(=O)NCC1(c2cccc(OCCCNC(=O)CC(F)(F)F)c2)CCN(c2ccccc2)CC1 [Example 11-1, N-{(1-phenyl-4-{3-[3-(2,2,2-trifluoroethyl)carbonylaminopropoxy]phenyl}piperidin-4-yl)methyl}-N′-(4-amino-2,6-diisopropylphenyl)urea]
ACAT inhibitory rate (%) [1]: 57% | ACAT inhibitory rate (%) [2]: 99%

COc1cccc(C2(CNC(=O)Nc3c(C(C)C)cc(N)cc3C(C)C)CCN(c3cccc(C)c3)CC2)c1 [Example 12-2, N-{[1-(3-methylphenyl)-4-(3-methoxyphenyl)piperidin-4-yl]methyl}-N′-(4-amino-2,6-diisopropylphenyl)urea]
ACAT inhibitory rate (%) [1]: 59% | ACAT inhibitory rate (%) [2]: 99%

COc1cccc(C2(CNC(=O)Nc3c(C(C)C)cc(N)cc3C(C)C)CCN(c3cccc(F)c3)CC2)c1 [Example 12-3, N-{[1-(3-fluorophenyl)-4-(3-methoxyphenyl)piperidin-4-yl]methyl}-N′-(4-amino-2,6-diisopropylphenyl)urea]
ACAT inhibitory rate (%) [1]: 63% | ACAT inhibitory rate (%) [2]: 99%
